Legend:
OSCs from mice = experiment: Screen of mouse OSCs for compounds that enhance mitochondrial function (mtDNA, ATP, mitochondrial mass, membrane potential, gene expression); assay type: cell-based; conditions: 24 hours; for activity above the baseline (DMSO alone), scored as a positive result: 25 or 50 μM (berberine 5 μM and 25 μM)
Description: Female infertility due to chemotherapy, aging and premature ovarian failure (POF) is due in part to a decline in mitochondrial function in oocytes and OSCs. Accordingly, OSCs from mice were used to screen for small compounds that enhance mitochondrial function (“bioenergetic status”) in female germline cells. Assays for enhancing mitochondrial function included mtDNA content, ATP, NAD+/NADH, mitochondrial mass, mitochondrial membrane potential, and gene expression of known mitochondrial mass regulators and electron transport chain components.
All the compounds were dissolved in DMSO. For screening purposes the cells were treated with the vehicle (0.001% DMSO) or with 25 or 50 μM of each compound (except for berberine, which the concentrations used for the screen were 5 μM and 25 μM) for 24 hours. For validation of the top 6 hits, cells were treated with vehicle (0.001% DMSO) or either 5 or 25 μM of each compound for 24 hours. For the gene expression profile, the cells were treated with the concentration that was considered to work better in the previous validation assays.
Mitochondrial membrane potential was measured with a fluorescent probe, Tetramethylrhodamine methyl ester (TMRM) (Sigma) as described before (Rolo A. P. Biochim. Biophys. Acta 2003 1637: 127-132). Briefly the cells were loaded with 6.6 μM TMRM in HBSS buffer at 37° C. for 15 minutes in the dark. The supernatant was then aspirated, and the cells returned to the original volume with KHH. TMRM is a membrane-permeable cationic fluorophore that accumulates electrophoretically in mitochondria in proportion to their mitochondrial membrane potential (Ehrenberg B. V. et al. Biophys. J. 1988 53:785-794). Cell suspensions (200 μl containing 10^5 cells) were loaded into 96-well plates and fluorescence measured using excitation and emission wavelengths of 485 and 590 nm, respectively. Mitochondrial membrane potential was estimated, taking into account the complete depolarization caused by carbonyl cyanide p-(trifluoromethoxy)phenylhydrazone (FCCP).
For mtDNA analysis, total DNA was extracted with DNeasy blood and tissue kit (QIAGEN). mtDNA was amplified using primers specific for the mitochondrial cytochrome c oxidase subunit 2 (COX2) gene and normalized to genomic DNA by amplification of the ribosomal protein s18 (rps18) nuclear gene. Primers were designed using the IDT software (IDT).
ATP content was measured using a luciferase-based assay with a commercial kit according to the manufacturer's instructions (Roche Applied Science, Penzberg, Germany) and normalized to protein content in each sample.
Mitochondrial mass was evaluated using the fluorescent probe N-nonyl acridine orange (NAO), briefly the cells were incubated in culture media containing 10 nM of NAO for 30 minutes at 37° C. in the dark. The cells were then trypsinized and resuspended in culture media without NAO. The NAO fluorescence intensity was then determined by flow cytometry on the FACSCALIBUR® (BD Biosciences, San Jose, Calif., USA) using the 488 nm laser.
For gene expression analysis, RNA from skeletal muscle tissue and C2C12 cells were extracted with RNeasy mini kit (QIAGEN) according to the instructions and quantified using the NanoDrop 1000 spectrophotometer (Thermo Scientific). cDNA was synthesized with the iSCRIP cDNA synthesis kit (BioRad) using 200 ng of RNA. Quantitative RT-PCR reactions were performed using 1 μM of primers and LIGHTCYCLER® 480 SYBR® Green Master (Roche Applied Science, Penzberg, Germany) on an LIGHTCYCLER® 480 detection system (Roche Applied Science, Penzberg, Germany). Calculations were performed by a comparative method (2-ΔΔCT) using actin as an internal control. Primers were designed using the IDT software (IDT).

Mouse OSCs = experiment: NAD+ and NADH levels in mouse OSCs treated with mitochondrial enhancers; assay type: cell-based; conditions: 24 hours
Procedure: FIG. 35 depicts levels of NAD+ (A) and NADH (B) in OSCs treated with mitochondrial enhancers. Mouse OSCs maintained in culture (Zou et al., Nat Cell Biol 2009 11:631-636) were exposed to the indicated test compounds for 24 hours and then assessed for levels of NAD+ and NADH. Female infertility due to chemotherapy, aging and premature ovarian failure (POF) is due in part to a decline in mitochondrial function in oocytes and OSCs. Accordingly, OSCs from mice were used to screen for small compounds that enhance mitochondrial function (“bioenergetic status”) in female germline cells. Assays for enhancing mitochondrial function included mtDNA content, ATP, NAD+/NADH, mitochondrial mass, mitochondrial membrane potential, and gene expression of known mitochondrial mass regulators and electron transport chain components. All the compounds were dissolved in DMSO. For screening purposes the cells were treated with the vehicle (0.001% DMSO) or with 25 or 50 μM of each compound (except for berberine, which the concentrations used for the screen were 5 μM and 25 μM) for 24 hours. For validation of the top 6 hits, cells were treated with vehicle (0.001% DMSO) or either 5 or 25 μM of each compound for 24 hours. For the gene expression profile, the cells were treated with the concentration that was considered to work better in the previous validation assays.

Row | Structure (SMILES) | mitochondrial parameters (OSCs from mice) | activity above the baseline (DMSO alone), scored as a positive result (OSCs from mice) | NAD^+ levels (Mouse OSCs)
1 | O=C(Nc1ccccc1-c1cn2c(CN3CCNCC3)csc2n1)c1cnc2ccccc2n1 [SRT-1720, N-[2[3-(piperazin-1-ylmethyl)imidazo[2,1-b][1,3]thiazol-6-yl]phenyl]quinoxaline-2-carboxamide] | increase mitochondrial parameters in a beneficial way | activity above the baseline | 
2 | O=c1cc(-c2ccc(O)cc2)oc2cc(O)cc(O)c12 [apigenin, 5,7-Dihydroxy-2-(4-hydroxyphenyl)-4H-1-benzopyran-4-one] | increase mitochondrial parameters in a beneficial way | activity above the baseline | raise
3 | O=c1cc(-c2ccc(O)c(O)c2)oc2cc(O)cc(O)c12 [luteolin, 2-(3,4-Dihydroxyphenyl)-5,7-dihydroxy-4-chromenone] | increase mitochondrial parameters in a beneficial way | activity above the baseline | raise
